Literature values, collected in PubChem BioAssay AID1259409 (Chemical Carcinogenesis Research Information System (CCRIS), 2018).
“And” between values parts separate entries of the source, which are not always exact repeats. Equal entries are not always repeated.

System: rodent chemically induced tumor inhibition, incidence and multiplicity
Test: CCRIS tumor inhibitor studies

## CCCc1cc(OC)c2c(c1)OCO2
Carcinogen: BENZO[A]PYRENE, 50-32-8, Dose [Inhibitor]: 0, 10 MG SUSPENDED IN 0.3 ML COTTONSEED OIL 3/WK FOR 4 WK ON DAYS OTHER THAN THE CARCINOGEN TREATMENT, 3 ADDITIONAL DOSE, Route [Inhibitor]: GAVAGE, Species: MOUSE, Strain/Sex: STRAIN-A/FEMALE, Target Tissue: Type of Lesion: FORESTOMACH: TUMOR, Dose [Carcinogen]: 1 MG IN 0.3 ML COTTONSEED OIL 2/WK FOR 4 WK, Promoter: NONE USED
  tumour outcome (control, treated, inhibition, significance): 12/17 (71%), 12/19 (63%), 11%, not significant
Carcinogen: BENZO[A]PYRENE, 50-32-8, Dose [Inhibitor]: 0, 10 MG SUSPENDED IN 0.3 ML COTTONSEED OIL 3/WK FOR 4 WK ON DAYS OTHER THAN THE CARCINOGEN TREATMENT, 3 ADDITIONAL DOSE, Route [Inhibitor]: GAVAGE, Species: MOUSE, Strain/Sex: STRAIN-A/FEMALE, Target Tissue: Type of Lesion: LUNG: TUMOR, Dose [Carcinogen]: 1 MG IN 0.3 ML COTTONSEED OIL 2/WK FOR 4 WK, Promoter: NONE USED
  tumour outcome (control, treated, inhibition, significance): 17/17 (100%), 19/19 (100%), 0%, not significant

## CC(C)=CCC/C(C)=C/COc1ccc2ccc(=O)oc2c1
Carcinogen: AZOXYMETHANE, 25843-45-2, Dose [Inhibitor]: 0, 0.01% IN DIET FOR 4 WK BEGINNING 1 WK PRIOR TO CARCINOGEN TREATMENT (STUDY DURATION: 38 WK), Route [Inhibitor]: ORAL, Species: RAT, Strain/Sex: F344/MALE, Target Tissue: Type of Lesion: COLON: ADENOCARCINOMA, Dose [Carcinogen]: 15 MG/KG BW 1/WK FOR 3 WK, Promoter: NONE
  tumour outcome (control, treated, inhibition, significance): 60%, 34%, 43%, not significant
Carcinogen: AZOXYMETHANE, 25843-45-2, Dose [Inhibitor]: 0, 0.01% IN DIET FOR 34 WK BEGINNING 1 WK POST LAST CARCINOGEN DOSE (STUDY DURATION: 38 WK), Route [Inhibitor]: ORAL, Species: RAT, Strain/Sex: F344/MALE, Target Tissue: Type of Lesion: COLON: ADENOCARCINOMA, Dose [Carcinogen]: 15 MG/KG BW 1/WK FOR 3 WK, Promoter: NONE
  tumour outcome (control, treated, inhibition, significance): 60%, 24%, 60%, p<0.021
Carcinogen: AZOXYMETHANE, 25843-45-2, Dose [Inhibitor]: 0, 0.05% IN DIET FOR 4 WK BEGINNING 1 WK PRIOR TO CARCINOGEN TREATMENT (STUDY DURATION: 38 WK), Route [Inhibitor]: ORAL, Species: RAT, Strain/Sex: F344/MALE, Target Tissue: Type of Lesion: COLON: ADENOCARCINOMA, Dose [Carcinogen]: 15 MG/KG BW 1/WK FOR 3 WK, Promoter: NONE
  tumour outcome (control, treated, inhibition, significance): 60%, 20%, 67%, p<0.0075
Carcinogen: AZOXYMETHANE, 25843-45-2, Dose [Inhibitor]: 0, 0.05% IN DIET FOR 34 WK BEGINNING 1 WK POST LAST CARCINOGEN DOSE (STUDY DURATION: 38 WK), Route [Inhibitor]: ORAL, Species: RAT, Strain/Sex: F344/MALE, Target Tissue: Type of Lesion: COLON: ADENOCARCINOMA, Dose [Carcinogen]: 15 MG/KG BW 1/WK FOR 3 WK, Promoter: NONE
  tumour outcome (control, treated, inhibition, significance): 60%, 20%, 67%, p<0.0075
Carcinogen: DIETHYLNITROSAMINE [55-18-5], Dose [Inhibitor]: 500 PPM IN DIET FOR 7 WKS, STARTING 1 WK BEFORE CARCINOGEN (STUDY DURATION: 32 WKS), Route [Inhibitor]: DIET, Species: RAT, Strain/Sex: F344/MALE, Target Tissue: Type of Lesion: LIVER: ADENOMA, Dose [Carcinogen]: 40 PPM FOR 5 WKS (STUDY DURATION: 32 WKS)
  tumour outcome (control, treated, inhibition, significance): 46%, 46%, 0%
Carcinogen: DIETHYLNITROSAMINE [55-18-5], Dose [Inhibitor]: 500 PPM IN DIET FOR 7 WKS, STARTING 1 WK BEFORE CARCINOGEN (STUDY DURATION: 32 WKS), Route [Inhibitor]: DIET, Species: RAT, Strain/Sex: F344/MALE, Target Tissue: Type of Lesion: LIVER: CARCINOMA, Dose [Carcinogen]: 40 PPM FOR 5 WKS (STUDY DURATION: 32 WKS)
  tumour outcome (control, treated, inhibition, significance): 100%, 63%, 37%
Carcinogen: DIETHYLNITROSAMINE [55-18-5], Dose [Inhibitor]: 500 PPM IN DIET FOR 25 WKS BEGINNING 1 WK AFTER END OF CARCINOGEN TREATMENT, Route [Inhibitor]: DIET, Species: RAT, Strain/Sex: F344/MALE, Target Tissue: Type of Lesion: LIVER: ADENOMA, Dose [Carcinogen]: 40 PPM FOR 5 WKS (STUDY DURATION: 32 WKS)
  tumour outcome (control, treated, inhibition, significance): 46%, 42%, 8.7%
Carcinogen: DIETHYLNITROSAMINE [55-18-5], Dose [Inhibitor]: 500 PPM IN DIET FOR 25 WKS BEGINNING 1 WK AFTER END OF CARCINOGEN TREATMENT, Route [Inhibitor]: DIET, Species: RAT, Strain/Sex: F344/MALE, Target Tissue: Type of Lesion: LIVER: CARCINOMA, Dose [Carcinogen]: 40 PPM FOR 5 WKS (STUDY DURATION: 32 WKS)
  tumour outcome (control, treated, inhibition, significance): 100%, 33%, 67%

## CC1=CCC(C(C)(C)O)CC1O (centres undefined)
Carcinogen: 7,12-DIMETHYLBENZ[A]ANTHRACENE, 57-97-6, Dose [Inhibitor]: 0, 1% IN DIET FOR 3 WK BEGINNING 2 WK PRIOR TO CARCINOGEN DOSE (STUDY DURATION: 20 WK), Route [Inhibitor]: ORAL, Species: RAT, Strain/Sex: WISTAR/FEMALE, Target Tissue: Type of Lesion: MAMMARY GLAND: CARCINOMA, Dose [Carcinogen]: 50 MG/KG IN SESAME OIL ONCE, Promoter: NONE USED
  tumour outcome (control, treated, inhibition, significance): 80%, 52%, 35%, not calculated and 98%, 84%, 14%, not significant

## CC(C)C(NC(=O)[C@@H]1CCCN1C(=O)[C@@H](NC(=O)c1ccc(C(=O)NS(=O)(=O)c2ccc(Br)cc2)cc1)C(C)C)C(=O)C(F)(F)F (some centres undefined)
Carcinogen: UV-B IRRADIATION, Dose [Inhibitor]: 0, 125 UG IN DMSO ADMINISTERED IMMEDIATELY PRIOR TO UV-B IRRADIATION AND 4 AND 24 HR POST IRRADIATION, CYCLE REPEATED 3/, Route [Inhibitor]: SUBCUTANEOUS, Species: MOUSE, Strain/Sex: SKH-1/FEMALE, Target Tissue: Type of Lesion: SKIN: CARCINOMA, Dose [Carcinogen]: 0.09 J/CM2 3/WK, Promoter: NONE USED
  tumour outcome (control, treated, inhibition, significance): 5/5 (100%), 2/5 (40%), 60%, not calculated
Carcinogen: UV-B IRRADIATION, Dose [Inhibitor]: 0, 125 UG IN DMSO ADMINISTERED IMMEDIATELY PRIOR TO UV-B IRRADIATION AND 4 AND 24 HR POST IRRADIATION, CYCLE REPEATED 3/, Route [Inhibitor]: SUBCUTANEOUS, Species: MOUSE, Strain/Sex: SKH-1/FEMALE, Target Tissue: Type of Lesion: SKIN: PAPILLOMA, Dose [Carcinogen]: 0.09 J/CM2 3/WK, Promoter: NONE USED
  tumour outcome (control, treated, inhibition, significance): 5/5 (100%), 3/5 (60%), 40%, not calculated

## C/C(=C\c1ccc(C(=O)O)cc1)c1cc2c(s1)CCCC2(C)C
Carcinogen: 7,12-DIMETHYLBENZ[A]ANTHRACENE, 57-97-6, Dose [Inhibitor]: 0.17 NMOL IN 0.2 ML ACETONE 1 HR PRIOR TO EACH PROMOTER DOSE FOR 12 WK (STUDY DURATION: 14 WK), Route [Inhibitor]: DERMAL, Species: MOUSE, Strain/Sex: SENCAR/FEMALE, Target Tissue: Type of Lesion: SKIN: PAPILLOMA, Dose [Carcinogen]: 200 NMOL IN 0.2 ML ACETONE ONCE, Promoter: 12-O-TETRADECANOYLPHORBOL-13-ACETATE, 16561-29-8
  tumour outcome (control, treated, inhibition, significance): 100%, 100%, 0%, not calculated
Carcinogen: 7,12-DIMETHYLBENZ[A]ANTHRACENE, 57-97-6, Dose [Inhibitor]: 0.17 NMOL IN 0.2 ML ACETONE 1 HR PRIOR TO EACH PROMOTER DOSE FOR 20 WK (STUDY DURATION: 22 WK), Route [Inhibitor]: DERMAL, Species: MOUSE, Strain/Sex: CD-1/FEMALE, Target Tissue: Type of Lesion: SKIN: PAPILLOMA, Dose [Carcinogen]: 200 NMOL IN 0.2 ML ACETONE ONCE, Promoter: 12-O-TETRADECANOYLPHORBOL-13-ACETATE, 16561-29-8
  tumour outcome (control, treated, inhibition, significance): 94%, 89%, 5%, not calculated
Carcinogen: 7,12-DIMETHYLBENZ[A]ANTHRACENE, 57-97-6, Dose [Inhibitor]: 1.7 NMOL IN 0.2 ML ACETONE 1 HR PRIOR TO EACH PROMOTER DOSE FOR 12 WK (STUDY DURATION: 14 WK), Route [Inhibitor]: DERMAL, Species: MOUSE, Strain/Sex: SENCAR/FEMALE, Target Tissue: Type of Lesion: SKIN: PAPILLOMA, Dose [Carcinogen]: 200 NMOL IN 0.2 ML ACETONE ONCE, Promoter: 12-O-TETRADECANOYLPHORBOL-13-ACETATE, 16561-29-8
  tumour outcome (control, treated, inhibition, significance): 100%, 80%, 20%, not calculated
Carcinogen: 7,12-DIMETHYLBENZ[A]ANTHRACENE, 57-97-6, Dose [Inhibitor]: 1.7 NMOL IN 0.2 ML ACETONE 1 HR PRIOR TO EACH PROMOTER DOSE FOR 20 WK (STUDY DURATION: 22 WK), Route [Inhibitor]: DERMAL, Species: MOUSE, Strain/Sex: CD-1/FEMALE, Target Tissue: Type of Lesion: SKIN: PAPILLOMA, Dose [Carcinogen]: 200 NMOL IN 0.2 ML ACETONE ONCE, Promoter: 12-O-TETRADECANOYLPHORBOL-13-ACETATE, 16561-29-8
  tumour outcome (control, treated, inhibition, significance): 94%, 52%, 45%, not calculated
Carcinogen: 7,12-DIMETHYLBENZ[A]ANTHRACENE, 57-97-6, Dose [Inhibitor]: 17 NMOL IN 0.2 ML ACETONE 1 HR PRIOR TO EACH PROMOTER DOSE FOR 12 WK (STUDY DURATION: 14 WK), Route [Inhibitor]: DERMAL, Species: MOUSE, Strain/Sex: SENCAR/FEMALE, Target Tissue: Type of Lesion: SKIN: PAPILLOMA, Dose [Carcinogen]: 200 NMOL IN 0.2 ML ACETONE ONCE, Promoter: 12-O-TETRADECANOYLPHORBOL-13-ACETATE, 16561-29-8
  tumour outcome (control, treated, inhibition, significance): 100%, 3%, 97%, not calculated
Carcinogen: 7,12-DIMETHYLBENZ[A]ANTHRACENE, 57-97-6, Dose [Inhibitor]: 17 NMOL IN 0.2 ML ACETONE 1 HR PRIOR TO EACH PROMOTER DOSE FOR 20 WK (STUDY DURATION: 22 WK), Route [Inhibitor]: DERMAL, Species: MOUSE, Strain/Sex: CD-1/FEMALE, Target Tissue: Type of Lesion: SKIN: PAPILLOMA, Dose [Carcinogen]: 200 NMOL IN 0.2 ML ACETONE ONCE, Promoter: 12-O-TETRADECANOYLPHORBOL-13-ACETATE, 16561-29-8
  tumour outcome (control, treated, inhibition, significance): 94%, 0%, 100%, not calculated
